Among the data in US7129275B2, “Compositions for treating acne comprising phytandiol amine” (Coreana Cosmetics Co., Ltd., priority 2001, dated 2006) are MIC values, retold here.

Assay in all cases: Minimum inhibitory concentration on reinforced clostridial agar
Details in all cases: 3 days at 35° C., anaerobic, complete growth inhibition

One experiment concerns P. acne ATCC 11828. The experiment is classed as cell-based, Propionibacterium acnes. As to the method:
(§1) To evaluate an antimicrobial activity of the phytandiol amine of this invention against acne pathogen, the minimum inhibitory concentration (hereinafter referred to as “MIC”) of the samples shown in Table 1 was measured as follows: The sample to be tested was added to reinforced clostridial agar medium (available from Difco Co.) in the amount of 0.001–0.1%, followed by solidification of the medium. The suspension of acne pathogenic bacteria found in Table 1 was streaked on the surface of the medium and the medium was incubated for 3 days at 35° C. under anaerobic condition.

For the next experiment, the system named is P. acnes ATCC 6919. The experiment is classed as cell-based, Propionibacterium acnes. As to the method:
as §1

The next experiment concerns P. avidum ATCC 25577. Type of experiment: cell-based, Propionibacterium avidum. The protocol:
as §1

Turning to `O=C(OOC(=O)c1ccccc1)c1ccccc1` [Benzoyl peroxide], the MIC against P. acne ATCC 11828, with P. acnes ATCC 6919 and with P. avidum ATCC 25577 was 0.1% in each case.
For `CC[C@H]1OC(=O)[C@H](C)[C@@H](O[C@H]2C[C@@](C)(OC)[C@@H](O)[C@H](C)O2)[C@H](C)[C@@H](O[C@@H]2O[C@H](C)C[C@H](N(C)C)[C@H]2O)[C@](C)(O)C[C@@H](C)C(=O)[C@H](C)[C@@H](O)[C@]1(C)O` [Erythromycin], the MIC with P. acne ATCC 11828, in the experiment on P. acnes ATCC 6919 and against P. avidum ATCC 25577 was 0.02% throughout.
